Assay results published in US10253041B2, “7-phenylethylamino-4H-pyrimido[4,5-d][1,3]oxazin-2-one compounds and their use as mutant IDH1 inhibitors” (Eli Lilly and Company, priority 2015, dated 2019).

target: T1, IDH2/R140Q (Homo sapiens, UniProt P48735, R140Q); assay: Biochemical assay for IDH2 R140Q mutant enzyme (2HG by RapidFire MS); settings: mean ± standard deviation of the mean; 90 minutes reaction
T1 construct: His-tag (N); made in house; host or cells: E. coli
T1 sequence (P48735 40-452 R140Q): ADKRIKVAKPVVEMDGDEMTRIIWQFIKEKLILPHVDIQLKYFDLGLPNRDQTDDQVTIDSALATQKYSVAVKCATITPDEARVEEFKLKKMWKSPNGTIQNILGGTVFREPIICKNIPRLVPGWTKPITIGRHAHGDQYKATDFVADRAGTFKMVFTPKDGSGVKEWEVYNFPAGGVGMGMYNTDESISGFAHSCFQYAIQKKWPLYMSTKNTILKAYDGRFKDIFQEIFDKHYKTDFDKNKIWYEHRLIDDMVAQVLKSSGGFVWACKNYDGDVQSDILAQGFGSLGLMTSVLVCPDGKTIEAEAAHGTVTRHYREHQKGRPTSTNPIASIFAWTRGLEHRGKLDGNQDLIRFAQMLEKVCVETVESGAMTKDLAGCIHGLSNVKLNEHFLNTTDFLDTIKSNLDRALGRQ
Procedure: IDH1-R132H, IDH1-R132C, IDH2-R172K and IDH2-R140Q mutant enzymes catalyze the conversion of αKG to 2HG. 2HG is analyzed using in-line solid phase extraction and mass spectrometry. This analysis is carried out in a RapidFire® instrument coupled to a 6460 triple quadrupole mass spectrometer (G6460A Agilent).
IDH1 mutant (R132H and R132C) and IDH2 mutant (R140Q and R172K) proteins containing N-terminal His-tag are expressed in E. coli and purified using nickel affinity chromatography. The enzyme assays are carried out in V-bottom 96 well polypropylene plates containing 100 mM Tris-HCl buffer, 1 mM DTT, 0.005% TRITON™ X-100, 120 mM NaCl. For IDH1 R132H, α-ketoglutarate, NADPH and MnCl2 are included at final concentrations of 300 μM, 2.5 μM and 300 μM respectively. For IDH1 R132C, α-ketoglutarate, NADPH and MnCl2 are included at final concentrations of 100 μM, 10 μM and 100 μM respectively. For IDH2 R172K, α-ketoglutarate, NADPH and MnCl2 are included at final concentrations of 150 μM, 10 μM and 150 μM respectively. For IDH2 R140Q, α-ketoglutarate, NADPH and MnCl2 are included at final concentrations of 3000 μM, 10 μM and 100 μM respectively. Final pH=7.0. Test compound dissolved in DMSO stock is diluted in the reaction mix at a final DMSO concentration of 4%. Compounds are tested in dose-response format. The assay is started by addition of enzyme. Enzymes are used at the following final concentrations: IDH1 R132H, 2 nM; IDH1 R132C, 0.5 nM; IDH2 R172K, 1.2 nM; IDH2 R140Q, 1.2 nM. After 90 minutes the reaction is quenched by adding ACN (50:50) containing 3-hydroxy-1,5-pentanedioic-2,2,3,4,4-d5 acid (5d5-3HG) as an internal standard for mass spectrometry analysis and quantitation of reaction product. 2-Hydroxyglutarate (2HG) in quenched samples is separated using strong anionic exchange column chromatography (Phenomenex Strata-X-A SecurityGuard) and analyzed by mass spectrometry in a 6460 triple quadrupole mass spectrometer (G6460A Agilent). The 2HG signal detected is transformed into an analyte concentration using a calibration curve generated using known 2HG concentrations. […] IC50 values are obtained from the individual % inhibition values at different compound concentrations using a 4-parameter equation. These calculations are carried out using Activity Base (IDBS) or Screener (Genedata) data analysis programs.

Row | IC50 [µM] | SMILES
1 | 59.5 | C=CC(=O)N1CCN(Cc2ccc([C@H](C)Nc3ncc4c(n3)N(CC(C)C)C(=O)OC4)cc2)CC1 [Example 3, 1-Isobutyl-7-[[(1S)-1-[4-[(4-prop-2-enoylpiperazin-1-yl)methyl]phenyl]ethyl]amino]-4H-pyrimido[4,5-d][1,3]oxazin-2-one]
2 | 37.7 | C=CC(=O)N1CC(OCc2ccc([C@H](C)Nc3ncc4c(n3)N(CC)C(=O)OC4)cc2)C1 [Example 4, 1-Ethyl-7-[[(1S)-1-[4-[(1-prop-2-enoylazetidin-3-yl)oxymethyl]phenyl]ethyl]amino]-4H-pyrimido[4,5-d][1,3]oxazin-2-one]
3 | > 100 | C=CC(=O)N1CC2(CN(Cc3ccc([C@H](C)Nc4ncc5c(n4)N(CC(C)C)C(=O)OC5)cc3)C2)C1 [Example 5, 1-Isobutyl-7-[[(1S)-1-[4-[(2-prop-2-enoyl-2,6-diazaspiro[3.3]heptan-6-yl)methyl]phenyl]ethyl]amino]-4H-pyrimido[4,5-d][1,3]oxazin-2-one]
4 | > 100 | C=CC(=O)N1CCN(c2ccc([C@H](C)Nc3ncc4c(n3)N(C(C)C)C(=O)OC4)cc2)CC1 [Example 6, 1-Isopropyl-7-[[(1S)-1-[4-(4-prop-2-enoylpiperazin-1-yl)phenyl]ethyl]amino]-4H-pyrimido[4,5-d][1,3]oxazin-2-one]
5 | 10.9 | C=CC(=O)N1CC(CCc2ccc([C@H](C)Nc3ncc4c(n3)N(CC)C(=O)OC4)cc2)C1 [Example 7, 1-Ethyl-7-[[(1S)-1-[4-[2-(1-prop-2-enoylazetidin-3-yl)ethyl]phenyl]ethyl]amino]-4H-pyrimido[4,5-d][1,3]oxazin-2-one]
6 | > 100 | C=CC(=O)N1CCC2(CC1)CN(Cc1ccc([C@H](C)Nc3ncc4c(n3)N(C(C)C)C(=O)OC4)cc1)C2 [Example 8, 1-Isopropyl-7-[[(1S)-1-[4-[(7-prop-2-enoyl-2,7-diazaspiro[3.5]nonan-2-yl)methyl]phenyl]ethyl]amino]-4H-pyrimido[4,5-d][1,3]oxazin-2-one]
7 | 27 | C=CC(=O)N1CC(COc2ccc([C@H](C)Nc3ncc4c(n3)N(C(C)C)C(=O)OC4)cc2)C1 [Example 9, 1-Isopropyl-7-[[(1S)-1-[4-[(1-prop-2-enoylazetidin-3-yl)methoxy]-phenyl]ethyl]amino]-4H-pyrimido[4,5-d][1,3]oxazin-2-one]
8 | > 100 | C=CC(=O)N1CC(N(C)Cc2ccc([C@H](C)Nc3ncc4c(n3)N(CC)C(=O)OC4)cc2)C1 [Example 10, 1-Ethyl-7-[[(1S)-1-[4-[[methyl-(1-prop-2-enoylazetidin-3-yl)amino]methyl]-phenyl]ethyl]amino]-4H-pyrimido[4,5-d][1,3]oxazin-2-one]
9 | > 100 | C=CC(=O)N1CCN(Cc2ccc([C@H](C)Nc3ncc4c(n3)N([C@H](C)CO)C(=O)OC4)cc2)CC1 [Example 11, 1-[(1R)-2-Hydroxy-1-methyl-ethyl]-7-[[(1S)-1-[4-[(4-prop-2-enoylpiperazin-1-yl)methyl]phenyl]ethyl]amino]-4H-pyrimido[4,5-d][1,3]oxazin-2-one]
10 | > 100 | C=CC(=O)N1CCC(N(C)Cc2ccc([C@H](C)Nc3ncc4c(n3)N(CC)C(=O)OC4)cc2)CC1 [Example 12, 1-Ethyl-7-[[(1S)-1-[4-[[methyl-(1-prop-2-enoyl-4-piperidyl)amino]-methyl]phenyl]ethyl]amino]-4H-pyrimido[4,5-d][1,3]oxazin-2-one]
11 | 93.6 | C=CC(=O)N1CC(OCc2ccc([C@H](C)Nc3ncc4c(n3)N(CC(C)C)C(=O)OC4)cc2)C1 [Example 13, 1-Isobutyl-7-[[(1S)-1-[4-[(1-prop-2-enoylazetidin-3-yl)oxymethyl]phenyl]ethyl]amino]-4H-pyrimido[4,5-d][1,3]oxazin-2-one]
12 | > 100 | C=CC(=O)N1CC2(CN(Cc3ccc([C@H](C)Nc4ncc5c(n4)N(CC)C(=O)OC5)cc3)C2)C1 [Example 14, 1-Ethyl-7-[[(1S)-1-[4-[(2-prop-2-enoyl-2,6-diazaspiro[3.3]heptan-6-yl)methyl]phenyl]ethyl]amino]-4H-pyrimido[4,5-d][1,3]oxazin-2-one]
13 | > 100 | C=CC(=O)N1CC2(CN(Cc3ccc([C@H](C)Nc4ncc5c(n4)N(C(C)C)C(=O)OC5)cc3)C2)C1 [Example 15, 1-Isopropyl-7-[[(1S)-1-[4-[(2-prop-2-enoyl-2,6-diazaspiro[3.3]heptan-6-yl)methyl]phenyl]ethyl]amino]-4H-pyrimido[4,5-d][1,3]oxazin-2-one]
14 | 49 | C=CC(=O)N1CCN(Cc2ccc([C@H](C)Nc3ncc4c(n3)N(CC)C(=O)OC4)cc2F)CC1 [Example 16, 1-Ethyl-7-[[(1S)-1-[3-fluoro-4-[(4-prop-2-enoylpiperazin-1-yl)methyl]phenyl]ethyl]amino]-4H-pyrimido[4,5-d][1,3]oxazin-2-one]
15 | 48.7 | C=CC(=O)N1CC(COc2ccc([C@H](C)Nc3ncc4c(n3)N(CC)C(=O)OC4)cc2)C1 [Example 17, 1-Ethyl-7-[[(1S)-1-[4-[(1-prop-2-enoylazetidin-3-yl)methoxy]phenyl]ethyl]amino]-4H-pyrimido[4,5-d][1,3]oxazin-2-one]
16 | > 100 | C=CC(=O)N1CCN(Cc2ccc([C@H](C)Nc3ncc4c(n3)N(C)C(=O)OC4)cc2)CC1 [Example 19, 1-Methyl-7-[[(1S)-1-[4-[(4-prop-2-enoylpiperazin-1-yl)methyl]phenyl]ethyl]amino]-4H-pyrimido[4,5-d][1,3]oxazin-2-one]
17 | 83.5 ± 17.4 | C=CC(=O)N1CCN(Cc2ccc([C@H](C)Nc3ncc4c(n3)N(CC(F)F)C(=O)OC4)cc2)CC1 [Example 20, 1-(2,2-difluoroethyl)-7-[[(1S)-1-[4-[(4-prop-2-enoylpiperazin-1-yl)methyl]phenyl]ethyl]amino]-4H-pyrimido[4,5-d][1,3]oxazin-2-one]
18 | > 100 | C=CC(=O)N1CCN(Cc2ccc([C@H](C)Nc3ncc4c(n3)N(CCF)C(=O)OC4)cc2)CC1 [Example 21, 1-(2-fluoroethyl)-7-[[(1S)-1-[4-[(4-prop-2-enoylpiperazin-1-yl)methyl]phenyl]ethyl]amino]-4H-pyrimido[4,5-d][1,3]oxazin-2-one]
19 | 11.6 ± 2 | C=CC(=O)N1CC=C(COc2ccc([C@H](C)Nc3ncc4c(n3)N(CC)C(=O)OC4)cc2)C1 [Example 22, 1-ethyl-7-[[(1S)-1-[4-[(1-prop-2-enoyl-2,5-dihydropyrrol-3-yl)methoxy]phenyl]ethyl]amino]-4H-pyrimido[4,5-d][1,3]oxazin-2-one]

Row | SMILES | IC50 [µM]
20 | C=CC(=O)N1CCN(Cc2ccc([C@H](C)Nc3ncc4c(n3)N(C(C)C)C(=O)OC4)cc2)CC1 [Example 1, 1-Isopropyl-7-[[(1S)-1-[4-[(4-prop-2-enoylpiperazin-1-yl)methyl]phenyl]ethyl]amino]-4H-pyrimido[4,5-d][1,3]oxazin-2-one] | 41.8
21 | C=CC(=O)N1CCN(Cc2ccc([C@H](C)Nc3ncc4c(n3)N(CC)C(=O)OC4)cc2)CC1 [Example 2, 1-Ethyl-7-[[(1S)-1-[4-[(4-prop-2-enoylpiperazin-1-yl)methyl]phenyl]ethyl]amino]-4H-pyrimido[4,5-d][1,3]oxazin-2-one] | 73.9
